# Results: patent US20140271831A1, “RACECADOTRIL LIQUID COMPOSITIONS” (McNeil-PPC, Inc., priority 2013, published 2014)
# Legend:
# [1] = Solubility of racecadotril in water, buffer and Beta-HPCD (statements); format: physicochemical
# [2] = cited from earlier work
smiles,measurement,setting,value
CC(=O)SCC(Cc1ccccc1)C(=O)NCC(=O)OCc1ccccc1 (racemic) [Racecadotril],solubility in buffer compared with water,[1],more soluble in buffer than in water
same,solubility utilizing the Beta-HPCD compared with buffers alone,[1],higher solubility
same,water solubility,[2],low water solubility
